1 substance from US20030013658A1, “Small peptides and methods for treatment of asthma and inflammation” (Hisatek, LLC, priority 1997, published 2003) can be followed below.

Entries after “also recorded” stand apart in the source; their conditions may differ. Where no end group is shown, it is not given here. The star is where a group is joined. For = O=C*

This test deals with OVA-sensitized/challenged mice. The test can be described thus: OVA allergen-induced airway inflammation mouse model, 28-day protocol, HK-X i.n. before each challenge. The test is classed as in vivo. The source says:
The above-described murine model reproduces key features of human asthma. Late-phase allergen-specific pulmonary disease was induced in normal BALB/c mice using ovalbumin (OVA) as allergen. One protocol includes immunization of mice with i.p. OVA on […] and 14, and intranasal (i.n.) administration of OVA on days 14, 25, 26, and 27.
In a mouse model of allergen-induced airway inflammation, the role of mast cell in airway eosinophil infiltration, mucus release, and hyper-responsiveness to methacholine was examined.
Materials were used as described above. Mice received an i.p. injection of 0.2 ml (100 ug) of OVA complexed with aluminum potassium sulfate (alum) on day 0 and 14. On days 14, 25, 26, and 27, mice were anesthetized with 0.2 ml i.p. of ketamine (0.44 mg/ml)/xylazine (6.3 mg/ml) in normal saline before receiving an intranasal (i.n.) dose of 100 ug OVA in 0.05 ml normal saline on days 25, 26, and 27. Lung tissue was obtained 24 hours after the last i.n. challenge on day 28. The control group received normal saline with alum i.p. on days 0 and 14 and normal saline without alum i.n. on days 14, 25, 26, and 27. To assess the effect of HK-X inhibition on OVA induced asthma, HK-X (10 ug/ml) was given i.n. 30 minutes before each i.n challenge on days 25, 26, and 27.
After tying off the left lung at the mainstem bronchus, the right lung was […] three times with 0.4 ml of normal saline, Bronchoalveolar lavage (BAL) fluid cells from a 0.05 ml aliquot of the pooled sample were counted using a hemocytometer and the remaining fluid centrifuged at 4° C. for 10 minutes at 200 g. After resuspension of the cell pellet in normal saline containing 10% BSA, BAL cell smears were made on glass slides. To stain eosinophils, dried slides were stained with Discombe's diluting fluid (0.05% aqueous eosin and 5% (v/v) acetone in distilled water) for 5-8 minutes, rinsed with water for 0.5 minutes and counterstained with 0.07 methylene blue for 2 minutes.
Following BAL, the trachea and left lung (upper and lower lobes) were obtained and fixed in 10% buffered formalin solution at 20° C. for1S hours. After the tissues were processed and embeded in paraffin, the tissues were cut into 5 μm sections and stained with Discombe's solution and counterstained with methylene blue as described above or stained with Hematoxylin and eosin. The eosinophil number per unit airway area (2200 μm^2) was determined by morphometry as previously described. Airway mucus was identified by a variety of staining methods, i.e., methylene blue, Hematoxylin and eosin, mucicarmine, toluidine blue, alcian blue, and alcian blue/periodic acid Schiff (PAS) reaction. Mucin was stained with mucicarmine solution; metanil yellow counterstain was employed. Mucin and sialic acid-rich non-sulfated mucosubstances were stained metachromatically with toluidine blue, pH 4.5. Acidic mucin and sulfated mucosubstances were stained with alcian blue, pH 2.5; nuclear fast red counterstain was used. Neutral and acidic mucosubstances were identified by alcian blue, pH 2.5 and PAS reaction. The degree of mucus plugging of the airways (0.5˜0.8 mm in diameter) also was assessed by morphometry. The percent occlusion of airway diameter by mucus was classified on a semiquantitative scale from 0 to +++++. The histologic and morphometric analyses protocol design were performed by individuals blinded to the protocol design.
Mucus glycoproteins in BAL fluid were assayed by slot blotting and PAS staining as described. Nitrocellulose membranes (0.2 um pore size; Schleicher & Schuell, Keene, N.H.) were wetted in distilled water and then in normal saline before placement in a Minifold II 72-well slot blot apparatus (Schleicher & Schuell). The BAL fluid samples (0.05 ml) and aliquots (0.05-0.75 ml) of a stock solution (2 ug/ml) of human respiratory mucin glycoprotein were blotted onto the nitrocellulose membranes by water suction vacuum, and mucus glycoproteins were visualized by PAS reaction. […]

As to “f-Met-Leu-Phe-Phe (For-MLFF) [Example 9]”, the “cellular infiltration during asthmatic attack” value (10 μg HK-X intranasally 30 minutes prior to challenge, FIG. 9) was “reduces the cellular infiltration”. Moreover, under “HK-X 10 ug/ml i.n. 30 minutes before each i.n. challenge, day 28”, the “eosinophil influx into lung tissue and BAL fluid” value was “markedly reduced eosinophil influx into the lung tissue and BAL fluid”. In addition, the “airway mucus release / secretion” value (HK-X i.n. 30 minutes before each OVA challenge days 25, 26, 27, histopathology, listed as HK-X) is listed as “prevented airway mucus release; also recorded: blocked the airway mucus release; also recorded: prevents the airway mucus secretion; also recorded: reduces the mucus secretion in airways”. The “number of eosinophils in the BAL fluid” value (OVA-sensitized/challenged mice treated with HK-X, in ×10^5 cells) is 0.57+0.11 ×10^5. Further, the “mucus cell induction by OVA immunization and challenge” value (alcian blue histochemistry, FIG. 10) is “prevents the mucus cell induction by OVA immunization and challenge”. Moreover, where the note is “morphometric analysis, p<0.006 compared to OVA without HK-X, FIG. 11”, the “reduction of eosinophil influx into the lung interstitium” value was determined as 90%.
